For one data set, the target named is T1, human DNA-PK (Homo sapiens, UniProt P78527).
T1 construct: The frozen HeLa cell pellet was thawed at 37° C. and immediately centrifuged; endogenous in cells; host or cells: HeLa S3 cells (ATCC CCL-2.2); Endogenous enzyme purified via S100-2 fraction, Q-Sepharose FF and SP-Sepharose FF (fraction IV)
The data set can be described thus: Standard DNA-PK assay (p53 peptide phosphorylation). The class given is biochemical. The procedure: Reactions were carried out at room temperature. Reactions were started by addition of ATP and stopped by application to phosphocellulose paper. Reaction products spotted onto phosphocellulose paper were washed five times with a total volume of at least 250 mL 10% acetic acid or 150 mM phosphoric acid. The paper was air dried and radioactivity was determined in a Beckman LS6000IC scintillation counter.

In data set [1] the test system is human colon carcinoma cell line HCT116. As to the kind of experiment: cells. The class given is cell-based. To be noted: for GI50: Homo sapiens. The procedure: Cells plated at a density of 5,000 to 20,000 per well in 96-well microtiter plates were grown in RMPI 1640 containing 10% FBS, 100 U/mL penicillin and 100 μg/mL streptomycin, for 18 h at 37° C. in a humidified incubator with 5% CO2. Cells tested included ACHN, 786-0, HCT-116, SW620, SK-MEL-5, SK-MEL-28, A549, H322, OVCAR-3, SK-OV-3, MCF-7, MDA-MB-231, MOLT4, HL60, SNB-19, PC-3. Cells were treated with media containing chemotherapeutic drugs alone or with media containing chemotherapeutic drugs and a DNA-PK inhibitor of the invention, 1-(2-hydroxy-4-morpholin-4-yl-phenyl)-ethanone. Cells were incubated for two days before growth was measured using a tetrazolium dye assay (MTS). Chemotherapeutic drugs included bleomycin etoposide, vinblastine, doxorubicin, paclitaxel, cisplatin, chlorambucil, cyclophosphamide, 5-fluorouracil, cytosine-arabinoside, 6-mercaptoguanine and methotrexate (all purchased from Sigma). The drug concentration necessary to inhibit cell growth to 50% of untreated control cells was defined as the GI50.

For data set [2], the system named is Colon carcinoma cells (HCT116).
The mark [3] stands for this setting: read-out: IC50 (nM) DNA-PK Assay.
The mark [4] stands for this setting: with 1-(2-hydroxy-4-morpholin-4-yl-phenyl)-ethanone.

Like-named read-outs stand apart in the source and are kept apart here.

For `CC(=O)c1ccc(N2CCOCC2)c(Cl)c1O` [Example 42 B, 1-(3-Chloro-2-hydroxy-4-morpholin-4-yl-phenyl)-ethanone], on human DNA-PK (setting [3]), the IC50 came out at 14000 nM.

Consider `O=C(O)c1ccc(N2CCOCC2)cc1O` [Example 29, 2-Hydroxy-4-morpholin-4-yl-benzoic Acid], for which the IC50 on human DNA-PK (setting [3]) was 500 nM. On the same count and under the same terms, for `O=[N+]([O-])c1ccc(N2CCOCC2)cc1O` [Example 33, 5-Morpholin-4-yl-2-nitro-phenol] the value was 2000 nM; for `COC(=O)c1ccc(N2CCOCC2)cc1O` [Example 30, 2-Hydroxy-4-morpholin-4-yl-benzoic Acid Methyl Ester], 500 nM. Turning to `O=C(O)C(F)(F)F.O=C(O)c1ccc(CN2CCOCC2)cc1O` [Example 52, 2-Hydroxy-4-morpholin-4-ylmethyl-benzoic Acid Trifluoroacetate], the melting point fell in the range of 138 to 146 °C. In the case of `CC(=O)c1cc(F)c(N2CCOCC2)cc1O` [Example 43 C, 1-(5-Fluoro-2-hydroxy-4-morpholin-4-yl-phenyl)-ethanone], on human DNA-PK (setting [3]), the IC50 was determined as 1500 nM.

On to `O=C(c1ccccc1)c1ccc(N2CCOCC2)cc1O` [Example 37, 1-(2-Hydroxy-4-morpholin-4-yl-phenyl)-1-phenyl-methanone], for which the IC50 at human DNA-PK (setting [3]) amounted to 120 nM.

As for `Nc1cc(N2CCNCC2)ccc1[N+](=O)[O-]` [Example 20, 2-Nitro-5-piperazin-1-yl-phenylamine], the IC50 on human DNA-PK (setting [3]) stood at 10000 nM. For the molecule `O/N=C/c1ccc(N2CCOCC2)cc1O` [Example 48, 2-((Hydroxyimino)methyl)-5-morpholin-4-yl-phenol], the IC50 on human DNA-PK (setting [3]) worked out at 1000 nM.

For `O=C(c1ccc(N2CCOCC2)cc1O)C(F)(F)F` [Example 38, 2,2,2-Trifluoro-1-(2-hydroxy-4-morpholin-4-yl-phenyl)-ethanone], at human DNA-PK (setting [3]), the IC50 came to 250 nM. Consider `N/N=C/c1ccc(N2CCOCC2)cc1O` [Example 49, 2-Hydrazonomethyl-5-morpholin-4-yl-phenol], for which the IC50 on human DNA-PK (setting [3]) worked out at 1000 nM.

With bleomycin, the “GI50, in the presence of DNA-PK inhibitor” value in data set [1] (100 μM 1-(2-hydroxy-4-morpholin-4-yl-phenyl)-ethanone) is reported as 3×10^−2 units/mL. In data set [1] (without DNA-PK inhibitor), the “GI50, chemotherapeutic drug alone” value is 2×10^−1 units/mL.

In the case of `CC(=O)c1ccc(N2CCOCC2)c(F)c1O` [Example 43 D, 1-(3-Fluoro-2-hydroxy-4-morpholin-4-yl-phenyl)-ethanone], on human DNA-PK (setting [3]), the half-maximal inhibitory concentration (IC50) was determined as 240 nM.

Regarding `CC(C)CC(=O)c1ccc(N2CCOCC2)cc1O` [Example 36, 1-(2-Hydroxy-4-morpholin-4-yl-phenyl)-3-methyl-butan-1-one], on human DNA-PK (setting [3]), the IC50 was 150 nM. Same read-out and setting: for `COC(=O)c1cc(N2CCOCC2)ccc1O` [Example 47, 2-Hydroxy-5-morpholin-4-yl-benzoic Acid Methyl Ester] the value was 40000 nM. On the same count and under the same terms, the result for `Nc1cc(NN2CCOCC2)ccc1[N+](=O)[O-]` [Example 16, N^1-Morpholin-4-yl-4-nitrobenzene-1,3-diamine] reads 1000 nM; that for `CCC(=O)c1ccc(N2CCOCC2)cc1O` [Example 35, 1-(2-Hydroxy-4-morpholin-4-yl-phenyl)-propan-1-one], 120 nM. Turning to `O=C(O)CCCc1ccc(N(CCCl)CCCl)cc1` [chlorambucil], the 50% growth inhibitory concentration (GI50) in data set [1] (HCT-116, read-out: GI50, chemotherapeutic drug alone) stood at 120000 nM; in data set [1] (HCT-116, read-out: GI50, in the presence of DNA-PK inhibitor), 14000 nM. On to `C[C@@]12c3ccc4c(c3C(=O)c3occ(c31)C(=O)C[C@H]2O)CCC4=O` [demethoxyviridin, reference compound], for which, on human DNA-PK (standard kinase reaction, read-out: IC50, enzyme activity inhibited), the IC50 was found to be 5 nM. For `COc1cc(N2CCOCC2)ccc1C=O` [Example 46 A, 2-Methoxy-4-morpholin-4-yl-benzaldehyde], on human DNA-PK (setting [3]), the half-maximal inhibitory concentration (IC50) amounted to 10000 nM.

Regarding `COc1cc([C@@H]2c3cc4c(cc3[C@@H](O[C@@H]3O[C@@H]5CO[C@@H](C)O[C@H]5[C@H](O)[C@H]3O)[C@H]3COC(=O)[C@H]23)OCO4)cc(OC)c1O` [etoposide, reference compound], in data set [2] (24 h etoposide), the “LD50 of etoposide without DNA-PK inhibitor” value turned out to be 1.1 µM and the “LD90 of etoposide without DNA-PK inhibitor” value is 2.9 µM. In data set [2] (setting [4]), the “LD50 of etoposide with DNA-PK inhibitor” value is 0.075 µM and the “LD90 of etoposide with DNA-PK inhibitor” value amounted to 0.9 µM. Besides, the 50% growth inhibitory concentration (GI50) in data set [1] (HCT-116, with 1-(2-hydroxy-4-morpholin-4-yl-phenyl)-ethanone, read-out: GI50, in the presence of DNA-PK inhibitor) turned out to be 14000 nM. In addition, the GI50 in data set [1] (HCT-116, without DNA-PK inhibitor, read-out: GI50, chemotherapeutic drug alone) came to 120000 nM.

The values above are taken from patent publication US8242115B2, “Materials and methods to potentiate cancer treatment” (Luitpold Pharmaceuticals, Inc., priority 2000, dated 2012).
